From US20220143021A1 (Cardiff Oncology, Inc., priority 2019, published 2022)
Values joined by “and” are separate entries in the source; they are usually repeats but may differ in a detail not shown here. Equal entries are not always repeated.

Experiments:
human prostate tissues [1] = assay: organ bath, noradrenaline-induced contractions of human prostate strips
Description: Human prostate tissues were obtained from patients undergoing radical prostatectomy for prostate cancer (n=107). Patients who underwent previous transurethral resection of the prostate (TURP) were excluded. This study was carried out in accordance with the Declaration of Helsinki of the World Medical Association, and has been approved by the ethics committee of the Ludwig-Maximilians University, Munich, Germany (Ethikkommission bei der LMU Munchen, approval number 19-737). Informed consent was obtained from all patients. According to the ethical approval, samples and data were collected and analyzed anonymously, so that no data on patients' characteristics were stored. Samples were taken immediately after prostatectomy, following macroscopical examination by an uro-pathologist. All tissues were taken from the periurethral zone, considering that most prostate cancers arise in the peripheral zone (Pradidarcheep et al., 2011; Shaikhibrahim et al., 2012). […] BPH is present in 80-83% of patients with prostate cancer (Alcaraz et al., 2009; Orsted and Bojesen, 2013). Typically, such tissues show varying content of prostate-specific antigen (PSA), and different contents of smooth muscle and glandular epithelia, reflecting that BPH is present to different degree (Wang et al., 2016a, 2016c). For macroscopic examination and sampling, the prostate was opened by a single longitudinal cut from the capsule to the urethra. Subsequently, both intersections were checked macroscopically for any obvious tumor infiltration. Because tumors are usually located to the peripheral zone, tumor infiltration in the periurethral zone (where sampling was performed) was very rare (found in less than 1% of prostates). Prostates showing tumors in the periurethral zone in macroscopic inspection were not subjected to sampling and were not included in this study. Organ bath studies were performed immediately after sampling, while samples for molecular analyses were shock frozen in liquid nitrogen and stored at −80° C.
Prostate strips (6×3×3 mm) were mounted in 10 ml aerated (95% 02 and 5% CO2) tissue baths (Danish Myotechnology, Aarhus, Denmark), containing Krebs-Henseleit solution (37° C., pH 7.4) with following composition: 118 mM NaCl, 4.7 mM KCl, 2.55 mM CaCl2), 1.2 mM KH2PO4, 1.2 mM MgSO4, 25 mM NaHCO3, 7.5 mM glucose. In each single experiment, two from four strips obtained from the same prostate were allocated to the control group (without inhibitor or antagonist), and two others to the inhibitor/antagonist group (resulting in duplicate determination for each group in each single experiment). All four samples of one experiment were examined in four chambers of the same organ bath. Consequently, control and inhibitor curves in each series/diagram were obtained from the same prostates, but different prostates were examined for different series/diagrams. […] Only one curve was recorded with each sample, i. e. for one agonist, or for electric field stimulation (EFS).
(§1) After mounting in organ bath chambers, preparations were stretched to 4.9 mN and left to equilibrate for 45 min. […] After the equilibration period, maximum contraction induced by 80 mM KCl was assessed. […]

human prostate tissues [2] = assay: organ bath, EFS-induced (neurogenic) contractions of human prostate strips
Description: Patients who underwent previous transurethral resection of the prostate (TURP) were excluded. […] Informed consent was obtained from all patients. According to the ethical approval, samples and data were collected and analyzed anonymously, so that no data on patients' characteristics were stored. Samples were taken immediately after prostatectomy, following macroscopical examination by an uro-pathologist. […] For macroscopic examination and sampling, the prostate was opened by a single longitudinal cut from the capsule to the urethra. Subsequently, both intersections were checked macroscopically for any obvious tumor infiltration. […] Prostates showing tumors in the periurethral zone in macroscopic inspection were not subjected to sampling and were not included in this study. Organ bath studies were performed immediately after sampling, while samples for molecular analyses were shock frozen in liquid nitrogen and stored at −80° C.
In each single experiment, two from four strips obtained from the same prostate were allocated to the control group (without inhibitor or antagonist), and two others to the inhibitor/antagonist group (resulting in duplicate determination for each group in each single experiment). All four samples of one experiment were examined in four chambers of the same organ bath. Consequently, control and inhibitor curves in each series/diagram were obtained from the same prostates, but different prostates were examined for different series/diagrams. […] Therefore, and considering that prostate tissues from radical prostatectomy may show considerable heterogeneity, statistical comparisons were only performed between groups within the same series (i. e. containing tissues from the same prostates for inhibitor and control group), but not between series obtained from different prostates (i. e., not across different series of organ bath experiments). Only one curve was recorded with each sample, i. e. for one agonist, or for electric field stimulation (EFS).
Subsequently, chambers were washed three times with Krebs-Henseleit solution for a total of 30 min.
Application of EFS simulates action potentials, resulting in the release of endogenous neurotransmitters, including noradrenaline. […] For EFS, tissue strips were placed between two parallel platinum electrodes connected to a CS4 stimulator (Danish Myotechnology). […] EFS-induced contractile responses were studied at frequencies of 2, 4, 8, 16, and 32 Hz, with train intervals of 30 s between stimulations.
Data analyses and calculations were based on maximum peak heights of contractions. For calculation of agonist- or EFS-induced contractions, tensions were expressed as % of KCl-induced contractions, as this may correct different stromal/epithelial ratios, different smooth muscle content, varying degree of BPH, or any other heterogeneity between prostate samples and patients.

human prostate tissues [3] = settings: Hennenberg et al., 2018; cited from earlier work
human prostate tissues [4] = assay: organ bath, endothelin-1-induced contractions of human prostate strips; settings: read-out: inhibition of endothelin-1-induced contraction
Description: (§2) Human prostate tissues were obtained from patients undergoing radical prostatectomy for prostate cancer (n=107). Patients who underwent previous transurethral resection of the prostate (TURP) were excluded. This study was carried out in accordance with the Declaration of Helsinki of the World Medical Association, and has been approved by the ethics committee of the Ludwig-Maximilians University, Munich, Germany (Ethikkommission bei der LMU Munchen, approval number 19-737). Informed consent was obtained from all patients. According to the ethical approval, samples and data were collected and analyzed anonymously, so that no data on patients' characteristics were stored. […]
(§3) Prostate strips (6×3×3 mm) were mounted in 10 ml aerated (95% 02 and 5% CO2) tissue baths (Danish Myotechnology, Aarhus, Denmark), containing Krebs-Henseleit solution (37° C., pH 7.4) with following composition: 118 mM NaCl, 4.7 mM KCl, 2.55 mM CaCl2), 1.2 mM KH2PO4, 1.2 mM MgSO4, 25 mM NaHCO3, 7.5 mM glucose. […] Only one curve was recorded with each sample, i. e. for one agonist, or for electric field stimulation (EFS).
as §1

human prostate tissues [5] = assay: organ bath, phenylephrine-induced contractions of human prostate strips
Description: as §2, §3, §1

296 kinases = settings: cited from earlier work
human prostate tissues [6] = assay: organ bath, U46619-induced contractions of human prostate strips; settings: 100 nM onvansertib
Description: as §2, §3, §1

human prostate tissues [7] = assay: organ bath, methoxamine-induced contractions of human prostate strips
Description: as §2, §3, §1

[8] = in vivo; cited from earlier work
human prostate tissues [9] = assay: organ bath, ATP-induced contractions of human prostate strips; settings: read-out: inhibition of ATP-induced contraction
Description: as §2, §3, §1

[10] = CCK-8 viability (cytotoxicity) assay; assay type: cell-based; settings: human, WPMY-1 cells (immortalized prostate stromal cells), read-out: decrease of viability
Description: (§4) WPMY-1 cells are an immortalized cell line obtained from human prostate stroma without prostate cancer (Webber et al., 1999). Cells were obtained from American Type Culture Collection (ATCC; Manassas, Va., USA), and kept in RPMI 1640 (Gibco, Carlsbad, Calif., USA) supplemented with 10% fetal calf serum (FCS) and 1% penicillin/streptomycin at 37° C. with 5% CO2. Before addition of onvansertib or DMSO, the medium was changed to a FCS-free medium. For Western blot analysis, cells were lyzed using radioimmunoprecipitation assay (RIPA) buffer (Sigma-Aldrich, St. Louis, Mo., USA), and removed from flasks after 15 min of incubation on ice. Cell debris was removed by centrifugation (10,000 g, 10 min, 4° C.), and different aliquots of supernatants were either subjected to protein determination, or boiled with SDS sample buffer.
Viability of cells was assessed using the Cell Counting Kit-8 (CCK-8) (Sigma-Aldrich, St. Louis, Mo., USA). […] Subsequently, cells were grown for different periods (24, 48, 72 h). Separate controls were performed for each period. At the end of this period, 10 μl of [2-(2-methoxy-4-nitrophenyl)-3-(4-nitrophenyl)-5-(2,4-disulfophenyl)-2H-tetrazolium monosodium salt (WST-8) from CCK-8 was added, and absorbance in each well was measured at 450 nm after incubation for 2 h at 37° C.

WPMY-1 cells [11] = assay: EdU proliferation assay; assay type: cell-based, human; settings: 24 h
Description: as §4
WPMY-1 cells were plated with cell line-specific densities (50,000/well) on 16-well chambered coverslips (Thermo Scientific, Waltham, Mass., USA). […] 20 h later, cells were fixed with 3.7% formaldehyde. EdU incorporation was determined using the “EdU-Click 555” cell proliferation assay (Baseclick, Tutzing, Germany) according to the manufacturer's instructions. In this assay, incorporation of EdU into DNA is assessed by detection with fluorescing 5-carboxytetramethylrhodamine (5-TAMRA). Counterstaining of all nuclei was performed with DAPI. Cells were analyzed by fluorescence microscopy (excitation: 546 nm; emission: […]).

[12] = humans, phase I, even by the lowest dosages tested (Weiss et al., 2018); cited from earlier work
CK2 = settings: Valsasina et al., 2012; cited from earlier work
WPMY-1 cells [13] = assay: plate colony formation assay; assay type: cell-based, human; settings: 14 days
Description: as §4
Cells were incubated at 37° C. for 14 days, then washed twice with PBS, and fixed by 2 ml of 10% trichloroacetic acid overnight (4° C.). Subsequently, all plates were washed five times with cold water, and stained with 0.4% sulforhodamine B solution (diluted in 1% acetic acid) at room temperature for 30 min. Before taking photos, all plates were labeled and washed five times with 1% acetic acid. The number of colonies containing 50 cells or more was counted under a microscope.

[14] = washout of onvansertib (100 nM) for 30 min

CCOc1ccccc1OCCN[C@H](C)Cc1ccc(OC)c(S(N)(=O)=O)c1 [tamsulosin, 5-[(2 R)-2-[2-(2-ethoxyphenoxy)ethylamino]propyl]-2-methoxybenzenesulfonamide, reference compound]
inhibition at 0.3 µM (human prostate tissues [1]; Homo sapiens, 100 μM noradrenaline, 300 nM tamsulosin): 93 ± 3.5% | inhibition of EFS-induced contraction by add-on of tamsulosin, compared to onvansertib alone (human prostate tissues [2]; 32 Hz, tamsulosin 300 nM combined with onvansertib 100 nM): 68% and 68±12.2% | inhibition at 0.3 µM (human prostate tissues [2]; Homo sapiens, 32 Hz, 300 nM tamsulosin): 48%

NC(=O)c1sc2c([N+](=O)[O-])cc(C(F)(F)F)cc2[n+]1[O-] [cyclapolin]
effect on endothelin-1-induced contractions of human prostate tissues (human prostate tissues [3]): did not change

CN1CCN(c2ccc(OC(F)(F)F)c(Nc3ncc4c(n3)-c3c(c(C(N)=O)nn3CCO)CC4)c2)CC1 [onvansertib, 1-(2-hydroxyethyl)-8-{[5-(4-methylpiperazin-1-yl)-2-(trifluoromethoxy)phenyl]amino}-4,5-dihydro-1H-pyrazolo[4,3-h] quinazoline-3-carboxamide]
inhibition at 0.1 µM (human prostate tissues [4]): 45 ± 6.6% | inhibition at 0.1 µM (human prostate tissues [5]): 47 ± 16.2% | kinases inhibited (296 kinases; tested at 100 nM against 296 kinases): inhibition only of PLK1 | number of kinases with decreases in activities (<50%) (296 kinases; tested at 1 μM against 296 kinases, including PLK1): 11 | effect on U46619-induced contractions (human prostate tissues [6]): did not change | inhibition at 0.1 µM (human prostate tissues [7]): 43 ± 19.4% | inhibition at 0.1 µM (human prostate tissues [1]; Homo sapiens): 45 ± 9.7% | inhibition at 1 µM (human prostate tissues [1]; Homo sapiens): 41 ± 6.2% | noradrenaline-induced contractions after washout versus DMSO (human prostate tissues [1]; [14]): did not differ | oral bioavailability [8]: good oral bioavailability | inhibition at 0.1 µM (human prostate tissues [9]): 51 ± 18.6% | inhibition of EFS-induced contraction by add-on of onvansertib, compared to silodosin alone (human prostate tissues [2]; 32 Hz, onvansertib 100 nM combined with silodosin 100 nM): 61% and 61±9.8% | inhibition of EFS-induced contraction by add-on of onvansertib, compared to tamsulosin alone (human prostate tissues [2]; 32 Hz, onvansertib 100 nM combined with tamsulosin 300 nM): 59% and 59±11.5% | inhibition at 0.1 µM (human prostate tissues [2]; Homo sapiens): 34% | inhibition at 1 µM (human prostate tissues [2]; Homo sapiens): 34% | EFS-induced contractions after washout versus DMSO (human prostate tissues [2]; [14]): did not differ | cytotoxicity at 24 h, 10 nM ([10]; 10 nM, 24 h): 15 ± 8.8% | cytotoxicity at 48 h, 10 nM ([10]; 10 nM, 48 h): 28 ± 8.3% | cytotoxicity at 72 h, 10 nM ([10]; 10 nM, 72 h): 40 ± 4.4% | cytotoxicity at 24 h, 100 nM ([10]; 100 nM, 24 h): 63 ± 2.2% | cytotoxicity at 48 h, 100 nM ([10]; 100 nM, 48 h): 86 ± 1.9% | cytotoxicity at 72 h, 100 nM ([10]; 100 nM, 72 h): 89 ± 1.4% | decrease of percentage of proliferating cells (WPMY-1 cells [11]; 10 nM): 18±0.1% | decrease of percentage of proliferating cells (WPMY-1 cells [11]; 50 nM): 24±2.1% | decrease of percentage of proliferating cells (WPMY-1 cells [11]; 100 nM): 35±2.0% | plasma concentrations [12]: three-digit nanomolar range | IC50 (CK2): 826 nM | decrease of colony formation (WPMY-1 cells [13]; 10 nM): 39±4.5% | decrease of colony formation (WPMY-1 cells [13]; 50 nM): 89±1.9% | decrease of colony formation (WPMY-1 cells [13]; 100 nM): 97±0.4%

COc1ccc(CCNCc2ccc(OCc3ccc(Cl)nc3)c(OC)c2)cc1OC [SBE 13]
effect on endothelin-1-induced contractions of human prostate tissues (human prostate tissues [3]): did not change

C[C@H](Cc1cc2c(c(C(N)=O)c1)N(CCCO)CC2)NCCOc1ccccc1OCC(F)(F)F [silodosin, 1-(3-hydroxypropyl)-5-[(2 R)-2-[2-[2-(2,2,2-trifluoroethoxy)phenoxy]ethylamino]propyl]-2,3-dihydroindole-7-carboxamide, reference compound]
inhibition at 0.1 µM (human prostate tissues [1]; Homo sapiens, 100 μM noradrenaline, 100 nM silodosin): 84 ± 4.99% | inhibition of EFS-induced contraction by add-on of silodosin, compared to onvansertib alone (human prostate tissues [2]; 32 Hz, silodosin 100 nM combined with onvansertib 100 nM): 68% and 68±12.7% | inhibition at 0.1 µM (human prostate tissues [2]; Homo sapiens, 32 Hz, 100 nM silodosin): 47%
